Series [1] can be described thus: in vitro. Particulars: human.
Series [2] is described as follows: in vitro. The note with it: human, Caco-2.
Series [3] can be described thus: in vitro. Particulars: human, Caco-2. This is another data set of the same source.
A further series addresses Human Cathepsin L (Homo sapiens, UniProt P07711). As to the kind of experiment: biochemical. Particulars: 0.01 ng/uL Cathepsin L, pH 5.5, 2 mM DTT; read-out: IC50 HCathepsin L.
A short description of a further series: physchem. Particulars: aqueous buffer, kinetic from dmso stock.
Another series concerns the target MHV M^pro (UniProt P0C6X9). As to the kind of experiment: In-vitro Mpro inhibition assay, MHV enzyme. The series is classed as biochemical, mouse hepatitis virus (MHV).
Series [4] in a line: in vitro. Particulars: human plasma.
Another series addresses Human Cathepsin B (Homo sapiens, UniProt P07858). As to the kind of experiment: Cathepsin B protease specificity assay (Z-LR-AMC substrate). The series is classed as biochemical. Particulars: 0.05 ng/uL Cathepsin B, pH 5.5, 2 mM DTT; read-out: IC50 HCathepsin B.
Series [5] is described as follows: in vitro. The note with it: mouse, plasma.
The conditions of series [6]: after a maximal 800 mg oral dose; cited from earlier work.

Values after ≈ are worked out from the molar mass of the structure shown. Read-outs that look alike come from different tables or passages of the source. Bounds are passed on as bounds.

Sequence of MHV M^pro (P0C6X9 3334-3635): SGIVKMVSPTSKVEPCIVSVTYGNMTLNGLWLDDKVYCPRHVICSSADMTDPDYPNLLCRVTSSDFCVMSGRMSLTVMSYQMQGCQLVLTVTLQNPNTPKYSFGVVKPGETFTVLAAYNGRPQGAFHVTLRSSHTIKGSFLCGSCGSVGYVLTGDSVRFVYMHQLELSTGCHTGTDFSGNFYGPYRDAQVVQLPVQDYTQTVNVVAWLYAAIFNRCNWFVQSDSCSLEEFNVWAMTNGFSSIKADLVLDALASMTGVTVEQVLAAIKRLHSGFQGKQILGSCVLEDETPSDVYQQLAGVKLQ
Sequence of Human Cathepsin L (P07711 114-333): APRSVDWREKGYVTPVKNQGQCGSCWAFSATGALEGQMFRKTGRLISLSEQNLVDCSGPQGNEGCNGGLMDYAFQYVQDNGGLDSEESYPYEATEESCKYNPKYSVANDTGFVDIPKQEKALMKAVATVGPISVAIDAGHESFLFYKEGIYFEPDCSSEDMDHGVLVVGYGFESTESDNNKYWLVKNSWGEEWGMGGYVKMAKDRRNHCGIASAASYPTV

With `CC(C)(C)NC(=O)N[C@H](C(=O)N1C[C@H]2[C@@H]([C@H]1C(=O)NC(CC1CCC1)C(=O)C(N)=O)C2(C)C)C(C)(C)C` (stereo partly drawn) [Boceprevir, boceprevir, reference compound], the CC50 in the series “in vitro [1]” and in the series “in vitro [2]” was above 100 µM in each case. The molecule further gave a Papp A→B in “in vitro [3]” of 2 ×10⁻⁶ cm/s. In the series “in vitro [3]”, this molecule had an apparent permeability from basolateral to apical (Papp B→A) of 29 ×10⁻⁶ cm/s. For the same molecule, the 50% inhibitory concentration (IC50) stood at 400 nM at Human Cathepsin L; 15 µM on MHV M^pro (100 nM MHV Mpro, read-out: IC50 MHV Mpro); 15 ± 7 µM at MHV M^pro (read-out: IC50, 100 nM mature MHV M^pro at 30° C., 100 nM enzyme, 30° C.); 4.5 µM at Human Cathepsin B. The molecule further registered a solubility (kinetic) in “physchem” of 73 µM (≈ 37.9 µg/mL). Further, the half-life in “in vitro [4]” turned out to be 495 min; in the series “in vitro [5]”, 28 min. Moreover, the peak plasma concentration in [6] is 3 µM.

Broadly, the Papp A→B is how fast a substance crosses the layer from the apical side. Read a low Papp A→B as poor permeation. By Papp B→A is commonly meant the apparent permeability from the basolateral to the apical side of a cell layer. For orientation: IC50 means the midpoint of a concentration-inhibition curve. One may read the solubility (kinetic) as the concentration staying in solution when a stock, usually in DMSO, is diluted into the medium. The half-life is the time needed for the level to fall by half in the phase considered. Low values mean fast loss, high ones slow loss.

Values taken from patent US20230192660A1 (priority 2020, published 2023).
